Tested on: visceral pain model in mice
Assay: Acetic acid writhing protocol (abdominal contortion test), visceral pain model in mice
Format: in vivo, male Swiss Webster mice
Details: 50-400 mg/kg PO; lowest dose (50 mpk) removed as apparent outlier
Experimental: In order to test the analgesic activity of the combination of an opioid (hydrocodone) and 3-hydroxyacetanilide, both compounds were tested separately and in combination in a visceral pain model in mice.
Experimental animals: One hundred fifty-five 4-week old, male Swiss Webster mice (stock number 024) were purchased from Charles River Laboratories (Portage, Mich.). The study animals were allowed an acclimation period of 1-2 weeks prior to dose initiation. The mice were housed 4-6 per cage and maintained in the Innovive caging system (San Diego, Calif.) upon arrival at. In accordance with the Guide for Care and Use of Laboratory Animals (Eighth Edition), mouse rooms were maintained at temperatures of 66-75 degrees Fahrenheit and relative humidity between 30% and 70%. Cages were monitored daily to ensure the Innovive system maintained 50 air changes per hour and positive pressure. The rooms were lit by artificial light for 12 hours each day (7:00 AM -7:00 PM). […]
Animals were allowed to acclimate to the testing room for a minimum of 1 hour prior to the experiment. […] The number of writhes over a 5 min duration were counted (5-10 and 15-20 min post-dose) starting 5 min after acetic acid administration. […]

CC(=O)Nc1cccc(O)c1 [3-hydroxyacetanilide]
shape of dose response curve (% AA vs dose): bell-shaped

From US20140378496A1, “OPIOID […] 3-HYDROXYA[…] TREATING PAIN” (SLX PHARMACEUTICALS, LLC, priority 2011, published 2014)
